Measurements from US20100016232A1, “Treatment Of Inflammatory Diseases With Mammal Beta Defensins” (Novozymes A/S, priority 2008, published 2010).
Where no end group is shown, it is not given here.

Assays:
[1] = system: IL-1β production from human peripheral blood mononuclear cells (PBMC); assay: IL-1β production from human PBMC, Cytometric Bead Array; assay type: cell-based; settings: Table 18
Description: (§1) Peripheral blood was drawn from healthy volunteers (with approval from the relevant ethical committee in Denmark). Heparinized blood was diluted 1/1 v/v with RPMI and were subjected to Ficoll density centrifugation within 2 h of drawing. Plasma was collected from the top from individual donors and was kept on ice until it was used at 2% in the culture medium (autologous culture medium). Isolated PBMC were resuspended in autologous culture medium and seeded in 96-well culture plates with 255.000 cells per well in a total of 200 μl. […] The concentrations used for stimulation were optimized on 3 different donors in initial experiments, for LPS two different concentrations were used to be sure to be on a cytokine level that is possible to modulate. In some experiments PBMC were treated with Dexamethason and Indomethacin alone and together with LPS or LTA as a control on downregulation of inflammatory cytokines. The supernatants were collected after incubation at 37° C. for 24 hours, and stored at −80° C. until cytokine measurement. Viability was measured by Alamar Blue (Biosource, DALL 1100) in all experiments and in some cases also by MTS (Promega) according to manufacturer's instruction and was in some experiments also judged by counting of the cells by a Nucleocounter.
(§2) Cytokine production in supernatants was measured by flow cytometry with a human inflammation cytometric bead array (CBA) according to manufacturer's instructions (BD) on a FACSarray flow cytometer. The following cytokines were measured: IL-8, IL-1β, IL-10, TNF, IL-12 p70, IL-6. In some experiments, cytokines were measured by ELISA kits from R&D systems (IL-10, TNF-α, IL-1β) according to the manufacturer' instruction.

[2] = system: IL-10 production from human peripheral blood mononuclear cells (PBMC); assay: IL-10 production from human PBMC, Cytometric Bead Array; assay type: cell-based; settings: Table 17
Description: as §1, §2

[3] = system: TNF production from human peripheral blood mononuclear cells (PBMC); assay: TNF production from human PBMC, Cytometric Bead Array; assay type: cell-based; settings: Table 16
Description: as §1, §2

PBMC = PBMC viability, Alamar Blue; assay type: cell-based, human; settings: human PBMC, Example 2; 40 μg/ml
Description: as §1

[4] = LPS 0.6 ng/ml, test compound 1 μg/ml
[5] = LPS 0.6 ng/ml, test compound 10 μg/ml
[6] = LPS 0.6 ng/ml, test compound 40 μg/ml
[7] = LPS 20 ng/ml, test compound 1 μg/ml
[8] = LPS 20 ng/ml, test compound 10 μg/ml
[9] = LPS 20 ng/ml, test compound 40 μg/ml

hBD1: human beta defensin 1, SEQ ID NO:1; prepared using chemical synthesis, Peptide Institute Inc. (DHYNCVSSGGQCLYSACPIFTKIQGTCYRGKAKCCK; ends and bridges not checked; cysteine pairing not given here; listed as Homo sapiens)
IL-1β [1, 4]: 512 pg/mL | IL-1β % of control [1, 4]: 69% | IL-1β [1, 5]: 401 pg/mL | IL-1β % of control [1, 5]: 54% | IL-1β [1, 6]: 302 pg/mL | IL-1β % of control [1, 6]: 41% | IL-1β [1, 7]: 2087 pg/mL | IL-1β % of control [1, 7]: 82% | IL-1β [1, 8]: 1913 pg/mL | IL-1β % of control [1, 8]: 75% | IL-1β [1, 9]: 1599 pg/mL | IL-1β % of control [1, 9]: 63% | IL-1β ([1]; Medium, test compound 1 μg/ml): 0 pg/mL | IL-1β ([1]; Medium, test compound 10 μg/ml): 0 pg/mL | IL-1β ([1]; Medium, test compound 40 μg/ml): 0 pg/mL | IL-10 [2, 4]: 71 pg/mL | IL-10 % of control [2, 4]: 108% | IL-10 [2, 5]: 76 pg/mL | IL-10 % of control [2, 5]: 114% | IL-10 [2, 6]: 69 pg/mL | IL-10 % of control [2, 6]: 104% | IL-10 [2, 7]: 95 pg/mL | IL-10 % of control [2, 7]: 85% | IL-10 [2, 8]: 100 pg/mL | IL-10 % of control [2, 8]: 90% | IL-10 [2, 9]: 113 pg/mL | IL-10 % of control [2, 9]: 102% | IL-10 ([2]; Medium, test compound 1 μg/ml): 0 pg/mL | IL-10 ([2]; Medium, test compound 10 μg/ml): 0 pg/mL | IL-10 ([2]; Medium, test compound 40 μg/ml): 0 pg/mL | TNF [3, 4]: 474 pg/mL | TNF % of control [3, 4]: 65% | TNF [3, 5]: 203 pg/mL | TNF % of control [3, 5]: 28% | TNF [3, 6]: 91 pg/mL | TNF % of control [3, 6]: 13% | TNF [3, 7]: 1395 pg/mL | TNF % of control [3, 7]: 64% | TNF [3, 8]: 1311 pg/mL | TNF % of control [3, 8]: 61% | TNF [3, 9]: 999 pg/mL | TNF % of control [3, 9]: 46% | TNF ([3]; Medium, test compound 1 μg/ml): 1 pg/mL | TNF ([3]; Medium, test compound 10 μg/ml): 0 pg/mL | TNF ([3]; Medium, test compound 40 μg/ml): 0 pg/mL

hBD4 variant: consists of amino acids 3-39 of hBD4, SEQ ID NO:5; prepared using chemical synthesis (ELDRICGYGTARCRKKCRSQEYRIGRCPNTYACCLRK; hBD-4 variant consisting of amino acids 3-39 of SEQ ID NO4)
IL-1β [1, 4]: 286 pg/mL | IL-1β % of control [1, 4]: 39% | IL-1β [1, 5]: 163 pg/mL | IL-1β % of control [1, 5]: 22% | IL-1β [1, 7]: 1004 pg/mL | IL-1β % of control [1, 7]: 40% | IL-1β [1, 8]: 463 pg/mL | IL-1β % of control [1, 8]: 18% | IL-1β ([1]; Medium, test compound 1 μg/ml): 0 pg/mL | IL-1β ([1]; Medium, test compound 10 μg/ml): 0 pg/mL | IL-10 [2, 4]: 90 pg/mL | IL-10 % of control [2, 4]: 136% | IL-10 [2, 5]: 92 pg/mL | IL-10 % of control [2, 5]: 139% | IL-10 % of control [2, 7]: 157% | IL-10 [2, 8]: 187 pg/mL | IL-10 % of control [2, 8]: 168% | IL-10 ([2]; Medium, test compound 1 μg/ml): 0 pg/mL | IL-10 ([2]; Medium, test compound 10 μg/ml): 0 pg/mL | TNF [3, 4]: 468 pg/mL | TNF % of control [3, 4]: 64% | TNF [3, 5]: 211 pg/mL | TNF % of control [3, 5]: 29% | TNF [3, 7]: 778 pg/mL | TNF % of control [3, 7]: 36% | TNF [3, 8]: 139 pg/mL | TNF % of control [3, 8]: 6% | TNF ([3]; Medium, test compound 1 μg/ml): 0 pg/mL | TNF ([3]; Medium, test compound 10 μg/ml): 0 pg/mL | toxicity to the cells (PBMC): toxic to the cells

rhBD2: recombinant hBD2, which is identical to hBD2 as used in Example 1 (GIGDPVTCLKSGAICHPVFCPRRYKQIGTCGLPGTKCCKKP; not fully specified; ends and bridges not checked; UniProt O15263 24-64, looked up)
IL-1β [1, 4]: 284 pg/mL | IL-1β % of control [1, 4]: 38% | IL-1β [1, 5]: 214 pg/mL | IL-1β % of control [1, 5]: 29% | IL-1β [1, 6]: 124 pg/mL | IL-1β % of control [1, 6]: 17% | IL-1β [1, 7]: 1480 pg/mL | IL-1β % of control [1, 7]: 58% | IL-1β [1, 8]: 624 pg/mL | IL-1β % of control [1, 8]: 25% | IL-1β [1, 9]: 395 pg/mL | IL-1β % of control [1, 9]: 16% | IL-1β ([1]; Medium, test compound 1 μg/ml): 0 pg/mL | IL-1β ([1]; Medium, test compound 10 μg/ml): 0 pg/mL | IL-1β ([1]; Medium, test compound 40 μg/ml): 0 pg/mL | IL-10 [2, 4]: 72 pg/mL | IL-10 % of control [2, 4]: 108% | IL-10 [2, 5]: 103 pg/mL | IL-10 % of control [2, 5]: 155% | IL-10 [2, 6]: 108 pg/mL | IL-10 % of control [2, 6]: 162% | IL-10 [2, 7]: 126 pg/mL | IL-10 % of control [2, 7]: 113% | IL-10 [2, 8]: 243 pg/mL | IL-10 % of control [2, 8]: 218% | IL-10 [2, 9]: 281 pg/mL | IL-10 % of control [2, 9]: 252% | IL-10 ([2]; Medium, test compound 1 μg/ml): 0 pg/mL | IL-10 ([2]; Medium, test compound 10 μg/ml): 0 pg/mL | IL-10 ([2]; Medium, test compound 40 μg/ml): 0 pg/mL | TNF [3, 4]: 196 pg/mL | TNF % of control [3, 4]: 27% | TNF [3, 5]: 125 pg/mL | TNF % of control [3, 5]: 17% | TNF [3, 6]: 74 pg/mL | TNF % of control [3, 6]: 10% | TNF [3, 7]: 918 pg/mL | TNF % of control [3, 7]: 42% | TNF [3, 8]: 260 pg/mL | TNF % of control [3, 8]: 12% | TNF [3, 9]: 167 pg/mL | TNF % of control [3, 9]: 8% | TNF ([3]; Medium, test compound 1 μg/ml): 1 pg/mL | TNF ([3]; Medium, test compound 10 μg/ml): 0 pg/mL | TNF ([3]; Medium, test compound 40 μg/ml): 0 pg/mL
